# Measurements: paper PMC10604187 (Antioxidants, 2023)
# Where two headings read alike, the source gives them in different places.
# Tests used:
# [1] = test system: freshly-cut apple slices; assay: Anti-browning assay of freshly-cut apple slices; set-up: species or system Malus pumila Miller; conditions: for L* value change (ΔL*): 48 h storage time point; for inhibition at 5000 µM: Malus pumila, read-out: inhibition of apple slice browning (relative browning intensity) compared to control
# Experimental: Apples (Malus pumila Miller) of similar maturity were purchased from a local market (Emart24®, Busan, Republic of Korea). The apples were cut into small equal-sized pieces (W × D × H, 1.5 ± 0.1 cm × 1.5 ± 0.1 cm × 0.3 ± 0.05 cm). Three apple slices were placed in glass dishes with a diameter of 5 cm.
# (§1) The apple slice dishes were placed in an incubator maintained at 20 °C. Kojic acid and PTU were used as positive controls. All samples, except PTU, were prepared as aqueous solutions. PTU test samples were prepared in a DMSO solution as it is only soluble in water at very low concentrations.
# At five time points (0, 12, 24, 36, and 48 h), apple slices were photographed using a camera (iPhone 11), and browning colors (a*, b*, and L*) were measured using a CR-10 spectrophotometer (Konica Minolta Sensing, Inc., Osaka, Japan). In the spectrophotometer, the colors were described by a* (redness and greenness), b* (yellowness and blueness), and L* (lightness) values according to the Commission Internationale de l’Eclairage (CIE) color system. The overall color difference (ΔE) was calculated using the following formula: (ΔE)^2 = (a − ainitial)^2 + (b − binitial)^2 + (L − Linitial)^2. In addition, based on the photographs, the relative browning intensities were calculated using CS analyzer 3.2 image analysis software.
# [2] = Water solubility (statement); format: physicochemical
# Experimental: as §1
# [3] = ABTS radical cation scavenging assay; conditions: 100 μM test samples
# Experimental: The ABTS radical cation-scavenging activities of analogs 1–10 were investigated according to a previously described protocol with minor modifications. Briefly, to prepare a test solution for the ABTS radical cation scavenging activity, potassium persulfate aqueous solution (10 mL, 2.45 mM) was mixed with ABTS aqueous solution (10 mL, 7 mM) and left for 12 h at room temperature in the dark until the absorbance remained constant. Prior to the ABTS radical cation scavenging assay experiments, the absorbance at 734 nm was adjusted to 0.70 ± 0.02 by diluting the ABTS radical cation solution with water. An aliquot (10 µL) of 1–10 or Trolox (the positive reference material) at 100 µM was mixed with the ABTS radical cation solution (90 µL) in each well of a 96-well plate and incubated for 10 min at ambient temperature in the dark. The optical density of each well was measured at 734 nm using a VersaMax® microplate reader. All experiments were performed independently 3 times.
# The antioxidant potential of 1–10 was investigated using the ABTS radical cation scavenging technique. ABTS can be easily oxidized to the corresponding radical cation by oxidants such as potassium persulfate. Because of the correlation between melanogenesis and antioxidant activity, the ABTS radical-scavenging ability of 1–10 was examined. […]
# [4] = In vitro ROS scavenging assay (SIN-1, DCFH-DA); conditions: 40 μM, ROS enhanced by SIN-1
# Experimental: At emission and excitation wavelengths of 535 and 485 nm, fluorescence intensity was measured using a fluorescence microplate reader (Berthold Technologies GmbH & Co., Wien, Austria).
# Hydrolyzed DCFH reacts with ROS to produce the fluorescent substance dichlorofluorescein (DCF). The ROS-scavenging effects of the analogs were determined by measuring the emitted fluorescence. The in vitro ROS-scavenging effects were measured using 40 μM test samples.
# [5] = DPPH radical scavenging assay; conditions: 1 mM test samples, 0.5 h
# Experimental: The DPPH radical scavenging activities of analogs 1–10 were evaluated according to a previously described protocol to examine the antioxidant effects of analogs 1–10. Briefly, an aliquot (180 µL) of DPPH methanol solution (0.2 mM) was mixed with a 2-MBI analogs’ DMSO (dimethyl sulfoxide) solution in each well of a 96-well plate, and the mixture was left in the dark for 0.5 h at room temperature. The optical density of each well was analyzed using a microplate reader (VersaMax®, Molecular Devices, Sunnyvale, CA, USA).
# As the antioxidant ability of a compound may be involved in the inhibition of melanogenesis, the antioxidant effects of analogs 1–10 on DPPH radicals were explored. Vitamin C (L-ascorbic acid), a strong antioxidant, was used as the positive control. After mixing the test sample and DPPH solutions and standing at room temperature in the dark for 0.5 h, the absorbances of the mixed samples were measured at 517 nm using 1 mM test samples.
# [6] = test system: HEK-293 cells; assay: Cell viability (EZ-Cytox) assay in HEK-293 cells; format: cell-based, human; conditions: 40 μM (maximum concentration), 24 h
# Experimental: HEK-293 cells were obtained from American Type Culture Collection (ATCC; Manassas, VA, USA). Trypsin, streptomycin, fetal bovine serum (FBS), phosphate-buffered saline (PBS), penicillin, and Dulbecco’s modified Eagle’s medium (DMEM) for HEK-293 cell culture were purchased from Thermo Fisher Scientific (Carlsbad, CA, USA). HEK-293 cells were cultured in a DMEM solution containing penicillin (100 IU/mL), 10% heat-inactivated FBS, and streptomycin (100 µg/mL) in a 5% CO2 environment at 37 °C.
# Cytotoxicity assays were performed using an EZ-Cytox assay (EZ-1000, DoGenBio, Seoul, Republic of Korea) in HEK-293 cells. Briefly, 96-well plates containing HEK-293 cells at a density of 1 × 10^4 cells per well were cultured in a 5% CO2 environment at 37 °C for 24 h. After 20 h, cells were treated with 2-MBI analogs 1−10 at 4 different concentrations (final concentration: 0, 2.5, 10, and 40 µM) and incubated for 24 h at 37 °C in a 5% CO2 environment. Then, 10 µL aliquot of the EZ-Cytox solution was added to each well. After 2 h incubation at 37 °C, the absorbance of each well was measured using a microplate reader (VersaMax®; Molecular Devices) at 450 nm.
# [7] = molecular target: T1, mushroom tyrosinase (Agaricus bisporus, UniProt C7FF04); assay: Mushroom tyrosinase inhibitory assay, diphenolase activity (L-dopa substrate); format: biochemical; conditions: vs kojic acid
# Experimental: The effect of the analogs on enzyme inhibition was investigated in the presence of L-dopa and L-tyrosine. […] After incubating the assay mixture for 0.5 h at 37 °C, the amounts of dopachrome produced during the incubation time were evaluated by measuring the absorbances of each well at 475 nm using a VersaMax^TM microplate reader (Molecular Devices, Sunnyvale, CA, USA).
# Target sequence in this assay (C7FF04 2-392): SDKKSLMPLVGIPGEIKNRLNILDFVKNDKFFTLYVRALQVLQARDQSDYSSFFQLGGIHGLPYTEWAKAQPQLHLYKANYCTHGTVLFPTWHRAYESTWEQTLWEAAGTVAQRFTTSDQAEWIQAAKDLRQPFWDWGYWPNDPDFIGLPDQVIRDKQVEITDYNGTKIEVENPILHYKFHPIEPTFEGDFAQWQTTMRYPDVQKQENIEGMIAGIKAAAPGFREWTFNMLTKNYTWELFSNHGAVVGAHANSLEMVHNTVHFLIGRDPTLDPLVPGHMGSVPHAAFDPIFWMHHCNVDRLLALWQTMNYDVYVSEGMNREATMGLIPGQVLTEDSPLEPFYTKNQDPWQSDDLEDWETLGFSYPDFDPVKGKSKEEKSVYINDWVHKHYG
# [8] = molecular target: T1, mushroom tyrosinase; assay: biochemical; conditions: for mode of tyrosinase inhibition: Lineweaver–Burk plots, L-dopa
# Experimental: Briefly, a dimethyl sulfoxide (DMSO) solution (10 µL) containing test analogs (final concentrations: 0, 5, 10, and 20 nM) was added to the wells of a 96-well plate containing mushroom tyrosinase (20 µL, 200 units/mL) and an aqueous solution (170 µL) consisting of L-dopa (final concentrations: 0.125, 0.25, 0.5, 1, 2, 4, and 8 mM) and phosphate buffer (final concentration: 14.7 mM, pH 6.5). The increase in the absorbance at 475 nm (ΔOD475/min) was measured using a VersaMax^TM microplate reader to determine the initial rate of dopachrome generation. The maximal velocity (Vmax) was determined from the y-axis intercept values of the Lineweaver–Burk plots obtained at seven different L-dopa concentrations. Dixon plots were obtained from Lineweaver–Burk plots for inhibitors by plotting the reciprocal of the reaction velocity against the inhibitor concentration.
# Target sequence in this assay (C7FF04 1-392): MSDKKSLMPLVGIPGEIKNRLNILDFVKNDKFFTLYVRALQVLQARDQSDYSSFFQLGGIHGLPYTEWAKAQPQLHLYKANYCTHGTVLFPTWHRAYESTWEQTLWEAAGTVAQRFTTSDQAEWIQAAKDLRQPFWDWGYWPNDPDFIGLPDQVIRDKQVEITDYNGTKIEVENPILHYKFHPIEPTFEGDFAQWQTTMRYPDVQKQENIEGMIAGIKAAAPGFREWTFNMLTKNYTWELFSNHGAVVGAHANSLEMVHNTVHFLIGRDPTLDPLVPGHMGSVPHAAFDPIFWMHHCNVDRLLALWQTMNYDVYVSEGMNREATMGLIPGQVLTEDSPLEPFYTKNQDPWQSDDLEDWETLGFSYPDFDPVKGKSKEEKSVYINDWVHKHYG
# [9] = 5 mM spray (analogs as sodium salts)
# [10] = 5 mM spray every 12 h (analogs as sodium salts), 36 h storage, 20 °C
smiles,measurement,setting,value
"NC(=S)Nc1ccccc1 [PTU, phenylthiourea, reference compound]",L* value change (ΔL*),[1]; [9],3.4
same,inhibition at 5000 µM,[1],21.9%
same,water solubility,[2],poorly soluble in water
"Cc1c(C)c2c(c(C)c1O)CCC(C)(C(=O)O)O2 (stereo not drawn) [Trolox, reference compound]","ABTS radical cation scavenging activity, inhibition",[3],96%
same,in vitro ROS scavenging effect,[4],greatly reduced
"O=C1O[C@H]([C@@H](O)CO)C(O)=C1O [Vitamin C, L-ascorbic acid]","DPPH radical scavenging activity, inhibition",[5],98%
"Sc1nc2ccccc2[nH]1 [analog 1, 1H-Benzo[d]imidazole-2-thiol]",inhibition at 5000 µM,[1],28.5 to 36.1%
"Cc1cc2nc(S)[nH]c2cc1C [analog 3, 5,6-Dimethyl-1H-benzo[d]imidazole-2-thiol]",cytotoxicity in HEK-293 cells,[6],weakly
"Sc1nc2cc(Cl)ccc2[nH]1 [analog 4, 5-Chloro-1H-benzo[d]imidazole-2-thiol]",in vitro ROS scavenging effect,[4],most potently reduced
"COc1ccc2[nH]c(S)nc2c1 [analog 5, 5-Methoxy-1H-benzo[d]imidazole-2-thiol]",L* value change (ΔL*),[1]; [9],8.2
"O=C(c1ccccc1)c1ccc2[nH]c(S)nc2c1 [analog 6, (2-Mercapto-1H-benzo[d]imidazol-5-yl)(phenyl)methanone]","fold more potent than kojic acid, diphenolase activity",[7],970 fold
same,Ki,[8],8.6 nM
same,mode of tyrosinase inhibition,[8],competitive
same,cytotoxicity in HEK-293 cells,[6],moderately cytotoxic
"O=[N+]([O-])c1ccc2[nH]c(S)nc2c1 [analog 7, 5-Nitro-1H-benzo[d]imidazole-2-thiol]",L* value change (ΔL*),[1]; [9],1.3
"Cc1cccc2[nH]c(S)nc12 [analog 9, 4-Methyl-1H-benzo[d]imidazole-2-thiol]","ABTS radical cation scavenging activity, inhibition",[3],90%
same,inhibition at 5000 µM,[1]; [10],28.5 to 36.1%
"N#Cc1ccc2[nH]c(S)nc2c1 [analog 10, 2-Mercapto-1H-benzo[d]imidazole-5-carbonitrile]",Ki,[8],14.8 nM
same,mode of tyrosinase inhibition,[8],competitive
same,L* value change (ΔL*),[1]; [9],3.1
same,overall color difference (ΔE) of apple slices,"[1]; 5 mM spray (analogs as sodium salts), over 48 h storage",lowest increase in ΔE
same,inhibition at 5000 µM,[1]; [10],28.5 to 36.1%
"O=c1cc(CO)occ1O [kojic acid, reference compound]",L* value change (ΔL*),[1]; [9],6.4
same,inhibition at 5000 µM,[1]; [10],7%
